Experimental data from patent US20220387403A1, “COMPOUNDS, COMPOSITIONS AND METHODS FOR TREATING NASH, NAFLD, AND OBESITY” (CVI Pharmaceuticals Limited, priority 2019, published 2022).
“Also recorded” adds a separate entry of the source.

Key:
LDLR mRNA [1] = test: LDLR mRNA expression in HepG2 cells, semi-quantitative RT-PCR; type: cell-based, human; details: 8 hours, FIG. 3
Description: HepG2 cells obtained from American Tissue Culture Collection (Manassas, Va., USA) were seeded in 6-well culture plates at a density of 0.8×10^6 cells/well cultured in EMEM containing 0.5% FBS and were treated with each purified compound at indicated doses for 8 hours. Total RNA was isolated, and 2 μg per sample was reverse transcribed with random primers using M-MLV (Promega) at 37° C. for 1 hour. PCR was carried out at 94° C. for 30 sec, 60° C. for 30 sec, and 72° C. for 30 sec with initial activation of the enzyme at 94° C. for 1 minute. Thirty cycles were performed for LDLR and GAPDH. PCR was performed using primers HLDLR-up and HLDLR-lo for LDLR and primers HGAPDH-up and HGAPDH-lo for GAPDH. The PCR products were separated on a 1% agarose gel and the band intensity was quantitated. LDLR mRNA levels were corrected by measuring GAPDH mRNA levels.
Specific stereochemical requirements of +/−THP in the upregulation of LDLR mRNA expression were determined by a similar experiment. HepG2 cells were treated with the pure 14R-(+)-THP or the pure 14S-(−)-THP at the indicated concentrations for 24 hours. The levels of LDLR mRNA and GAPDH mRNA in untreated and the compound-treated HepG2 cells were assessed by semi-quantitative RT-PCR.

PCSK9 mRNA = PCSK9 mRNA expression in HepG2 cells, quantitative real-time RT-PCR; type: cell-based, human; details: 24 hours; for Activity on PCSK9 mRNA reduction at 10 uM (fold of control) / Activity on PCSK9 mRNA reduction at 40 uM (fold of control): mean ± s.d.
Description: The time-dependent effects of compounds of Formula I, II, III, and IV on the upregulation of LDLR mRNA and the inhibition of PCSK9 mRNA expression were examined (Horton J D, Cohen J C, Hobbs H H. “Molecular biology of PCSK9: its role in LDL metabolism” TRENDS in Biochemical Sciences 2007; 32:71-77). HepG2 cells were treated with new compounds individually at 20 uM dose for 1 day, 2 day, and 3 days. Total RNA was isolated and 2 μg was used to generate cDNA in a reaction containing random primers and M-MLV at 37° C. for 1 hour in a volume of 25 μl. Real-time PCR was performed on the cDNA using MCEP REALPLEX 2 SYSTEM (Eppendorf) and Universal MasterMix (Applied Biosystems). Human LDLR, PCSK9, and GAPDH Pre-Developed TaqMan Assay Reagents (Applied Biosystems) were used to assess the levels of mRNA expressions in HepG2. The levels of LDLR mRNA or PCSK9 mRNA were normalized to that of GAPDH. Each RNA samples was assayed in triplicate. The abundance of LDLR mRNA or PCSK9 mRNA in untreated cells was defined as 1, and the amounts of LDLR mRNA or PCSK9 from compound-treated cells were plotted relative to that value (FIG. 10). The data shown are mean±s.d.
Total RNA was harvested for quantitative real-time RT-PCR analysis using method described in Examples 16B. The fold activity was derived by dividing the amount of normalized LDLR or PCSK9 mRNA in compound-treated cells over the amount of LDLR or PCSK9 mRNA in untreated control cells.
(§1) The effects of 23 compounds on the mRNA expressions of LDLR and PCSK9 were examined using quantitative real-time RT-PCR assays. HepG2 cells were treated with various compounds at 10 and 40 uM concentrations for 24 hours. Total RNA was isolated and 2 μg was used to generate cDNA in a reaction containing random primers and M-MLV at 37° C. for 1 h in a volume of 25 μl. Real-time PCR was performed on the cDNA using MCEP REALPLEX 2 SYSTEM (Eppendorf) and Universal MasterMix (Applied Biosystems). Human LDLR, PCSK9, and GAPDH Pre-Developed TaqMan Assay Reagents (Applied Biosystems) were used to assess the levels of mRNA expressions in HepG2. The levels of LDLR and PCSK9 mRNA were normalized to that of GAPDH. Each RNA samples was assayed in duplicate. The fold activity was calculated by dividing mRNA abundance in compound treated cells with that of control.

LDLR mRNA [2] = test: LDLR mRNA expression in HepG2 cells, quantitative real-time RT-PCR; type: cell-based, human; details: 24 hours; for Activity on LDLR mRNA at 10 uM (fold of control) / Activity on LDLR mRNA at 40 uM (fold of control): mean ± s.d.
Description: Activities of some compounds of Formulas I, II, III, and IV on LDLR mRNA expression were determined. HepG2 cells were treated with new compounds individually at a dose less than or equal to 10 μM for 24 hours. Total RNA was harvested for quantitative real-time RT-PCR analysis using the method described in Example 16B. […] In these experiments, berberine chloride was included for comparison. […]
Total RNA was harvested for quantitative real-time RT-PCR analysis using method described in Examples 16B.
as §1

NASH hamster model = test: Free-choice diet-induced NASH hamster model; type: in vivo; details: for NAS score / fibrosis / hepatocyte ballooning: C128 100 mg/kg, elafibranor 15 mg/kg, orally QD for 5 weeks
Description: In a free-choice diet-induced NASH hamster model, hamsters were fed a free choice diet (free choice between a chow diet with normal tap water or a high fat/cholesterol diet (Safe Diets) with 10% fructose enriched tap water) for up to 20 weeks (15 weeks diet and 5 weeks treatment). After 15 weeks of diet, hamsters were randomized into 3 homogenous groups (n=10/group) and were treated with vehicle, compound 128 (C128) at 100 mg/kg, or PPAR dual agonist elafibranor 15 mg/kg orally QD for 5 weeks. […] The study results are illustrated by FIGS. 17 to 19.

NAFLD hamster model = test: High fat and high cholesterol diet induced NAFLD hamster model; type: in vivo; details: 4 weeks
Description: In a high fat and high cholesterol diet (HFHCD) induced non-alcoholic fat liver disease (NAFLD) hamster model, hamsters were fed a HFHCD for two weeks then treated for 4 weeks with C128 at 10 mg/kg, 20 mg/kg and 40 mg/kg, along with fenofibrate at 50 mg/kg as a positive control. Serum lipids and liver enzymes were measured using standard techniques. Liver tissue histopathology with Oil-red O staining and H&E staining were also performed.
In a high fat and high cholesterol diet (HFHCD) induced NAFLD hamster model, hamsters were fed a HFHCD for two weeks then treated for 4 weeks with C127 at 80 mg/kg or with fenofibrate 50 mg/kg.

obese Cynomolgus monkeys = test: Obese Cynomolgus monkeys fed a high fat diet (DEXA scan, serum parameters); type: in vivo; details: 40 mg/kg/day PO three weeks, then 80 mg/kg/day weeks 4-6
Text: Twelve obese Cynomolgus monkeys were fed a high fat diet containing 0.5% cholesterol for 6 weeks before the treatment phase. Before the treatment with compound 127 (C127) or vehicle, all animals received a assessment of whole body and fat composition using Dual Energy X-Ray Absorptiometry (DEXA) whole body scan to measure body fat content and bone mineral density/content (reference: Black, A., Tilmont, E. M., Baer, D. J., Rumpler W. V., et. Al. Accuracy and precision of dual-energy X-ray absorptiometry for body composition measurements in rhesus monkeys. Journal of Medical Primatology, 30:94-99, 2001. Six monkeys received vehicle by PO and six monkeys received C127 at 40 mg/kg/day by PO for three weeks; from week 4-6, C127 dose was increased to 80 mg/kg/day. Dosing was ended after 6-weeks treatment, followed by DEXA scan on all animals.

[3] = 100 mg/kg orally QD for 5 weeks

Compound: COc1cc2c(cc1OC)[C@H]1Cc3ccc(OC)c(OC)c3CN1CC2 [14R-(+)-THP, 14R-(+)-tetrahydropalmatine]
- effects on LDLR mRNA expression (in words) (LDLR mRNA [1]): potent and dose-dependent effects

Compound: COc1ccc2c(c1OS(=O)(=O)c1cccc(F)c1)CN1CCc3cc4c(cc3C1C2)OCCO4 (stereo not drawn) [Compound 129, 11-Methoxy-6,7,8,9,14,14a-hexahydro-2H,3H-1,4-dioxano[5,6-g]isoquinolino[3,2-a]isoquinolin-10-yl 3-fluorobenzenesulfonate]
- Activity on PCSK9 mRNA reduction at 10 uM (fold of control) (PCSK9 mRNA): 1.57 ± 0.07 fold of control
- Activity on PCSK9 mRNA reduction at 40 uM (fold of control) (PCSK9 mRNA): 1.68 ± 0.41 fold of control
- Activity on LDLR mRNA at 10 uM (fold of control) (LDLR mRNA [2]): 2.49 ± 0.18 fold of control
- Activity on LDLR mRNA at 40 uM (fold of control) (LDLR mRNA [2]): 1.99 ± 0.13 fold of control

Compound: COc1cc2c(cc1OCCO)C1Cc3ccc(OC)c(OS(=O)(=O)c4ccccc4)c3CN1CC2 (stereo not drawn) [Compound 143, 2-(2-hydroxyethoxy)-3,10-dimethoxy-5,6,7,8,13,13a-hexahydroisoquinolino[2,1-b]isoquinolin-9-yl benzenesulfonate]
- Activity on PCSK9 mRNA reduction at 10 uM (fold of control) (PCSK9 mRNA): 1.09 ± 0.09 fold of control
- Activity on LDLR mRNA at 10 uM (fold of control) (LDLR mRNA [2]): 1.87 ± 0.03 fold of control
- Activity on LDLR mRNA at 40 uM (fold of control) (LDLR mRNA [2]): 14.97 ± 1.68 fold of control

Compound: COc1ccc2c(c1OS(=O)(=O)c1cccc(F)c1)CN1CCc3cc(C)ccc3C1C2 (stereo not drawn) [Compound 130, 10-Methoxy-3-methyl-5,6,7,8,13,13a-hexahydroisoquinolino[2,1-b]isoquinolin-9-yl 3-fluroobenzenesulfonate]
- Activity on PCSK9 mRNA reduction at 10 uM (fold of control) (PCSK9 mRNA): 2.11 ± 0.11 fold of control
- Activity on LDLR mRNA at 10 uM (fold of control) (LDLR mRNA [2]): 4.29 ± 0.65 fold of control
- Activity on LDLR mRNA at 40 uM (fold of control) (LDLR mRNA [2]): 9.00 ± 1.49 fold of control

Compound: COc1cc2c(cc1OC)[C@H]1[C@@H](C)c3ccc(OC)c(OC)c3CN1CC2 [14R,13S-(+)-CRDL, 14R,13S-(+)-corydaline]
- effects on LDLR mRNA expression (in words) (LDLR mRNA [1]): potent and dose-dependent effects

Compound: COc1cc2c(cc1O)CCN1Cc3c(ccc(OC)c3OC)CC21 (stereo not drawn) [14R-(+)-CRPM, 14R-(+)-corypalmine]
- effects on LDLR mRNA expression (in words) (LDLR mRNA [1]): potent and dose-dependent effects

Compound: CSc1ccc(C(=O)/C=C/c2cc(C)c(OC(C)(C)C(=O)O)c(C)c2)cc1 [elafibranor, reference compound]
- NAS score (NASH hamster model): significant reduction
- fibrosis (NASH hamster model): reduced fibrosis, although to a lesser degree
- hepatocyte ballooning (NASH hamster model): reduced

Compound: COc1cc2c(cc1OC)C1Cc3ccc(OC)c(OS(=O)(=O)c4cccc(F)c4)c3CN1CC2 (stereo not drawn) [Compound 127, 2,3,10-trimethoxy-5,6,7,8,13,13a-hexahydroisoquinolino[2,1-b]isoquinolin-9-yl 3-fluorobenzenesulfonate]
- hepatocyte lipid droplet vacuoles, cell and neutrophil infiltration (H&E) (NAFLD hamster model; C127 80 mg/kg): reduced
- hypolipidemic effect (NAFLD hamster model; C127 80 mg/kg): significant hypolipidemic effect
- lipid deposition in the liver (NAFLD hamster model; C127 80 mg/kg): effectively reduced
- Activity on PCSK9 mRNA reduction at 10 uM (fold of control) (PCSK9 mRNA): 0.197 ± 0.014 fold of control
- Activity on PCSK9 mRNA reduction at 40 uM (fold of control) (PCSK9 mRNA): 0.192 ± 0.016 fold of control
- Activity on LDLR mRNA at 10 uM (fold of control) (LDLR mRNA [2]): 1.80 ± 0.13 fold of control
- Activity on LDLR mRNA at 40 uM (fold of control) (LDLR mRNA [2]): 2.38 ± 0.38 fold of control
- body weight, BMI and body fat (DEXA) (obese Cynomolgus monkeys): reduced
- bone mineral content (DEXA) (obese Cynomolgus monkeys): improved
- liver enzyme ALT (obese Cynomolgus monkeys): significant reduction
- serum LDL-C, TC (obese Cynomolgus monkeys): trend in reducing

Compound: COc1ccc2c(c1)CCN1Cc3c(ccc(OC)c3OS(=O)(=O)c3cccc(F)c3)CC21 (stereo not drawn) [Compound 128, 3,10-dimethoxy-5,6,7,8,13,13a-hexahydroisoquinolino[2,1-b]isoquinolin-9-yl 3-fluorobenzenesulfonate]
- lipid droplets in the hepatocytes and cellular inflammation (H&E) (NAFLD hamster model; 20 mg/kg and 40 mg/kg groups): alleviated to varying degrees
- hepatocyte lipid droplet, hepatocyte ballooning and cellular inflammation (H&E) (NAFLD hamster model; 40 mg/kg group): significantly reduced
- circulating cholesterol and triglycerides (serum TC, LDL-C, TG) (NAFLD hamster model; C128 10, 20 and 40 mg/kg): significantly reduced
- diet induced elevations of liver enzymes (ALT, AST, ALP) (NAFLD hamster model; C128 10, 20 and 40 mg/kg): significantly reduced
- fat accumulation in liver tissues (NAFLD hamster model; C128 10, 20 and 40 mg/kg): significantly reduced
- Activity on PCSK9 mRNA reduction at 40 uM (fold of control) (PCSK9 mRNA): 0.86 ± 0.029 fold of control
- Activity on LDLR mRNA at 10 uM (fold of control) (LDLR mRNA [2]): 7.52 ± 0.26 fold of control
- Activity on LDLR mRNA at 40 uM (fold of control) (LDLR mRNA [2]): 13.36 ± 0.46 fold of control
- inflammation score (NASH hamster model; [3]): trend towards lower
- steatosis score (NASH hamster model; [3]): trend towards lower
- NAS score (NASH hamster model): significant reduction
- fibrosis (NASH hamster model): significantly lowered; also recorded: not detected
- hepatocyte ballooning (NASH hamster model): significantly lowered

Compound: COc1cc2c(cc1OC)C1Cc3ccc(OC)c(OS(=O)(=O)c4ccccc4)c3CN1CC2 (stereo not drawn) [Compound 91, 2,3,10-trimethoxy-5,6,7,8,13,13a-hexahydroisoquinolino[2,1-b]isoquinolin-9-yl benzenesulfonate]
- PCSK9 mRNA expression vs concentration (in words) (PCSK9 mRNA; FIG. 15B): inhibits
- LDLR mRNA expression vs concentration (in words) (LDLR mRNA [2]; FIG. 15A): dose-dependently increases
